Laboratory results from patent publication US9631196B2, “Genetic manipulation and expression systems for Pucciniomycotina and Ustilaginomycotina subphyla” (priority 2011, dated 2017).
Like-named read-outs stand apart in the source and are kept apart here.

Assays:
U maydis spheroplasts = assay type: cell-based, Ustilago maydis
From the text: (§1) cyp1 (um11812) and ptf1 (um02713) genes were chosen for the comparison of gene-targeting frequency, which can be monitored by the loss of ustilagic acids (UA) production and the loss of Fuz^+ colonies, respectively. Gene deletion constructs, pKOcyp1 and pKOprf1, were made by one-step ligation of four fragments. pKOcyp1 is composed of the 2.0-kb HindIII-PacI fragment containing the Pgpd::hpt cassette, the 8.7 kb NcoI-KpnI fragment from pEX2tk, the 1405 bp NcoI-HindIII and the 1076 bp PacI-KpnI PCR product derived from the upstream and downstream regions of the cyp1 ORF. The oligo pairs Cyp1L-Nf/Cyp1L-Hr (SEQ ID NO:29/SEQ ID NO:30) and Cyp1R-Pf/Cyp1R-Kr (SEQ ID NO:31/SEQ ID NO:32) were used for the amplification of upstream and downstream region, respectively. pKOprf1 was made similarly except the PCR product of oligo pairs Prf1L-Nf/Prf1L-Hr (SEQ ID NO:33/SEQ ID NO:34) and Prf1R-Pf/Prf1R-Kr (SEQ ID NO:35/SEQ ID NO:36) were used as the upstream and downstream homology region, respectively. Correct strains were identified by colony PCR using Taq DNA polymerase based on the size of the expected constructs using oligos LB/Cyp1L-Nf (SEQ ID NO:37/SEQ ID NO:29) and LB/Prf1L-Nf (SEQ ID NO:37/SEQ ID NO:33) for cyp1Δ and prf1Δ respectively. The same construction and identification techniques were applied to generate other gene deletion mutants in this study.
PEG-mediated transformation of U maydis spheroplasts were done as described previously (Kämper, 2004). Briefly, the 4.5 kb cyp1 and prf1 gene deletion cassettes were amplified from pKOcyp1 and pKOprf1 using the Expand Long System (Roche Diagnosis, USA) and oligos Cyp1L-Nf/Cyp1R-Kr (SEQ ID NO:29/SEQ ID NO:32) and Prf1L-Nf/Prf1R-Kr (SEQ ID NO:33/SEQ ID NO:36), respectively. The PCR products were gel purified (Qiagen, Germany) and used for transformation. […]

U. maydis L8 and SG200 = assay type: cell-based, Ustilago maydis; conditions: for cyp1Δ (%) gene knockout frequency / prf1 Δ (%) gene knockout frequency: co-culture 2 days
From the text: as §1
Similar results were obtained when knockout was performed via the ATMT transformation (Table 9).

[1] = NU7026 1 μM in top and bottom regeneration media, 3 days, out of 288 transformants

Question: Which results are given for `O=c1cc(N2CCOCC2)oc2c1ccc1ccccc12` [NU7026, 2-(morpholin-4-yl)-benzo[h]chomen-4-one; 2-(4-morpholinyl)-4H-naphthol[1,2-b]pyran-4-one]?
Answer: cyp1Δ gene knockout frequency (U maydis spheroplasts; [1]): 16.67%; prf1Δ gene knockout frequency (U maydis spheroplasts; [1]): 26.39%; increase of gene knockout frequency (U maydis spheroplasts; both cyp1 and prf1, NU7026 1 μM vs control): about 3 folds; cyp1Δ (%) gene knockout frequency (U. maydis L8 and SG200; NU7026 0.1 μM): 8.3%; prf1 Δ (%) gene knockout frequency (U. maydis L8 and SG200; NU7026 0.1 μM): 11.4%; cyp1Δ (%) gene knockout frequency (U. maydis L8 and SG200; NU7026 1 μM): 18.8%; prf1 Δ (%) gene knockout frequency (U. maydis L8 and SG200; NU7026 1 μM): 25.1%; cyp1Δ (%) gene knockout frequency (U. maydis L8 and SG200; NU7026 5 μM): 10.4%; prf1 Δ (%) gene knockout frequency (U. maydis L8 and SG200; NU7026 5 μM): 12.7%; cyp1Δ (%) gene knockout frequency (U. maydis L8 and SG200; NU7026 10 μM): 8.3%; prf1 Δ (%) gene knockout frequency (U. maydis L8 and SG200; NU7026 10 μM): 8.7%; cyp1Δ (%) gene knockout frequency (U. maydis L8 and SG200; NU7026 50 μM): 7.4%; prf1 Δ (%) gene knockout frequency (U. maydis L8 and SG200; NU7026 50 μM): 8.5%; total number of transformants obtained in 5 transformation plates (U. maydis L8 and SG200; cyp1Δ, NU7026 0.1 μM): 601; total number of transformants obtained in 5 transformation plates (U. maydis L8 and SG200; cyp1Δ, NU7026 1 μM): 496; total number of transformants obtained in 5 transformation plates (U. maydis L8 and SG200; cyp1Δ, NU7026 5 μM): 413; total number of transformants obtained in 5 transformation plates (U. maydis L8 and SG200; cyp1Δ, NU7026 10 μM): 96; total number of transformants obtained in 5 transformation plates (U. maydis L8 and SG200; cyp1Δ, NU7026 50 μM): 68; total number of transformants obtained in 5 transformation plates (U. maydis L8 and SG200; prf1Δ, NU7026 0.1 μM): 642; total number of transformants obtained in 5 transformation plates (U. maydis L8 and SG200; prf1Δ, NU7026 1 μM): 554; total number of transformants obtained in 5 transformation plates (U. maydis L8 and SG200; prf1Δ, NU7026 5 μM): 361; total number of transformants obtained in 5 transformation plates (U. maydis L8 and SG200; prf1Δ, NU7026 10 μM): 172; total number of transformants obtained in 5 transformation plates (U. maydis L8 and SG200; prf1Δ, NU7026 50 μM): 59
